Test results taken from ChEMBL document CHEMBL1151180, “Madhucosides A and B, protobassic acid glycosides from Madhuca indica with inhibitory activity on free radical release from phagocytes” (J Nat Prod, 2004).
Converted amounts (≈) assume the structure as drawn.

Tests used:
[1] = Inhibition of superoxide production in PMNCs at 200 ug/mL by NBT reduction assay; assay type: functional
Neutrophil = experiment: Inhibition of hypochlorous production in PMA-stimulated human neutrophils by luminol-enhanced chemiluminescence assay; assay type: functional, cell-based
[2] = Inhibition of superoxide production in PMNCs by NBT reduction assay; assay type: functional

Compound C[C@@H]1O[C@@H](O[C@H]2[C@H](O)[C@@H](O[C@@H]3OC[C@@H](O)[C@H](O)[C@H]3O)[C@H](O[C@@H]3[C@@H](O)[C@H](C)O[C@@H](O[C@H]4[C@H](OC(=O)[C@]56CCC(C)(C)C[C@@H]5C5=CC[C@@H]7[C@@]8(C)C[C@H](O)[C@H](O)[C@@](C)(CO[C@@H]9O[C@H](CO)[C@@H](O)[C@H](O)[C@H]9O[C@@H]9OC[C@](O)(CO)[C@H]9O)[C@@H]8[C@H](O)C[C@@]7(C)[C@]5(C)CC6)OC[C@H](O)[C@@H]4O)[C@@H]3O)O[C@@H]2CO)[C@H](O)[C@H](O)[C@H]1O has an inhibition at 200 µg/mL [1] of 16% and an IC50 (Neutrophil) of 144 µg/mL.
Compound O=C1O[C@H]([C@@H](O)CO)C(O)=C1O [ASCORBIC ACID] has an IC50 [2] of 14.1 µg/mL (≈ 80.1 µM).
For CC(C)=C[C@H]1C[C@](C)(O)[C@H]2[C@H]3CC[C@@H]4[C@@]5(C)CC[C@H](O[C@@H]6O[C@H](CO)[C@@H](O)[C@H](O[C@@H]7O[C@H](CO)[C@@H](O)[C@H](O)[C@H]7O)[C@H]6O[C@@H]6O[C@@H](CO)[C@H](O)[C@H]6O)C(C)(C)[C@@H]5CC[C@@]4(C)[C@@]34CO[C@@]2(C4)O1 [BACOSIDE A3], the IC50 (Neutrophil) was 19.8 µg/mL.
Compound O=c1c(O)c(-c2ccc(O)c(O)c2)oc2cc(O)cc(O)c12 [QUERCETIN] has an IC50 [2] of 111 µg/mL (≈ 367 µM).
